Laboratory results from patent EP4471048A1, “PEPTIDE INHIBITORS OF INTERLEUKIN-23 RECEPTOR” (Zealand Pharma A/S, priority 2023, dated 2024).
Where two headings read alike, the source gives them in different places. *1 amine or outer side, *2 acyl side, *3 side chain or, on linkers, in order; H or OH if unused. Where a SMILES comes first, the peptide text is derived from it. Bridges are numbered along the chain shown (N, C = ends). [ ]: non-standard residue; d: D form. The star is where a group is joined. 2Nal = N[C@@H](Cc1ccc2ccccc2c1)C(=O)O; AEF = NCCOc1ccc(C[C@H](N)C(=O)O)cc1; X1 = O=C(Cc1ccc(CN[*:1])cc1)[*:2]; 3Pal = N[C@@H](Cc1cccnc1)C(=O)O; αMeL = CC(C)C[C@](C)(N)C(=O)O; CH2COCH2 = O=C(C[*:1])C[*:2]; 3Amb = NCc1cccc(C(=O)O)c1; Pyrrolidide = C1CCN(*)C1; Dab = NCC[C@H](N)C(=O)O

Key:
[1] = biological target: IL-23 mediated signalling (Homo sapiens, UniProt Q5VWK5); assay: Functional inhibition of IL-23 mediated STAT3 signalling (phospho-STAT3 MSD) in DB cells; format: cell-based; conditions: for Emax: read-out: hIL-23 (pSTAT3) antagonist % inhibition
Excerpt: Upon binding of IL-23, the IL-23R forms a heterodimer signalling complex together with IL-12R β1, which through the JAK2/STAT3 pathway promotes phosphorylation of STAT3 to form phospho-STAT3.
For compounds tested in this assay, the response was normalized relative to control values to calculate the IC50 and maximal inhibitory response from a concentration response curve of the compound in presence of a fixed concentration of human IL-23.
The assay procedure was as follows. […] Following preincubation of the DB cells with inhibitor for 15 min in a cell incubator (37 °C, 5% CO2), 20 µL of the prepared 3X the EC80 of hIL-23 solution was added to each well and incubated for 90 min in a cell incubator (37 °C, 5% CO2). For some wells buffer only or IL-23 only corresponding to the EC80 was added to obtain readouts needed for normalization. To terminate the assay, the plate was spun at 1000 G for 5 min to pellet cells, the supernatant removed using an 8-channel manual pipette, and then added 50 µL/well Complete Lysis Buffer from the MSD STAT3 kit (Cat# K150SVD, Mesoscale) to the cell pellet. To completely lyse cells to release phospho-STAT3 for detection, the plate was shaken for 10 min at room temperature (500 rpm) sealed with aluminium foil and placed at -80 °C for a minimum of 15 min. Detection of the phospho-STAT3 level in the cell lysate from the individual wells was determined using the MSD STAT3 kit (Cat# K150SVD, Mesoscale) and read on a Meso QuickPlex SQ 120 plate reader (Mesoscale).
For data analysis raw data counts from the Meso QuickPlex SQ 120 plate reader were normalized relative to the response by the EC80 of h1L-23 alone (no compound added) and the buffer level. Compound potency (IC50) and maximal inhibitory response (% inhibition) were estimated by computer-aided curve fitting using a 4-parameter logistic (4PL) nonlinear model. […] Table 3-2: hIL-23 (pSTAT3) antagonist IC50 and % inhibition

human IL-23R = biological target: T1, human IL-23R (Homo sapiens, UniProt Q5VWK5); assay: biochemical
T1 sequence (Q5VWK5 22-629): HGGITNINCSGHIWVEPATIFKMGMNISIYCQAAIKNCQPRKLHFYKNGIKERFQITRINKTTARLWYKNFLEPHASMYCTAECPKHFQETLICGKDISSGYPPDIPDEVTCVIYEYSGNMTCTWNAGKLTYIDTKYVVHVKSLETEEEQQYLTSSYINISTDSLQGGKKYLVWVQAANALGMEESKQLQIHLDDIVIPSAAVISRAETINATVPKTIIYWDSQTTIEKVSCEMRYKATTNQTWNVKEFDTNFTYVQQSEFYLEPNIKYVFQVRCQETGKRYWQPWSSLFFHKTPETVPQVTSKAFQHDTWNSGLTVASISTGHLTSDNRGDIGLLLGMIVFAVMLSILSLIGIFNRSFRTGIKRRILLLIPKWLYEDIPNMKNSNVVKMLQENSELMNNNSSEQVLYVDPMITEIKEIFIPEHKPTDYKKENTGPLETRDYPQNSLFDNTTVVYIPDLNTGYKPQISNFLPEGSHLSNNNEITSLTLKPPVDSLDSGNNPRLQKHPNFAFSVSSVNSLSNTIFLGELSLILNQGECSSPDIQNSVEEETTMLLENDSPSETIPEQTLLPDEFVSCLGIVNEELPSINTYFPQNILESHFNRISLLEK
Summary of the method: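 Membranes from HEK293 cells stably expressing Nluc-tagged human IL-23R were incubated 2 h at room temperature with test compound and a fluorophore-labelled tracer. After substrate addition, loss of BRET (TAMRA over luciferase emission) reported tracer displacement. A 4PL fit gave IC50 values.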

[2] = Peptide stability in simulated intestinal fluid (SIF); format: in vitro ADME; conditions: pig, 37 °C, porcine pancreatin; for remaining at 1 h, 10 µM: pH 6.8, 1 h; for remaining at 4 h, 10 µM: pH 6.8, 4 h, read-out: SIF (% remaining 4 h)
Summary of the method: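 Peptides were incubated at 37 °C with gentle shaking in pH 6.8 potassium phosphate SIF containing porcine pancreatin (10 g/L). Supernatants were analysed by LC-HRMS. Percent remaining at each timepoint, including 4 h, was calculated relative to time zero from absolute peak areas.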

[3] = Table 3-2, DB cells, hIL-23 at EC80, read-out: hIL-23 (pSTAT3) antagonist IC50
[4] = Table 3-2, maximal inhibitory response, DB cells, hIL-23 at EC80

| IC50 [1, 3] [pM] | Emax [1, 4] [%] | % displacement (hIL-23R NIuc) (human IL-23R) [%] | IC50 (human IL-23R) [pM] | Ki (human IL-23R) [pM] | remaining at 1 h, 10 µM [2] [%] | remaining at 4 h, 10 µM [2] [%] | hIL-23 (pSTAT3) antagonist % inhibition [1, 4] [%] | % displacement (hIL-23R NIuc) (human IL-23R; Table 3-1, maximal displacement of TAMRA-labelled peptide) [%] | SMILES | IC50 [1] [pM] |
| --- | --- | --- | --- | --- | --- | --- | --- | --- | --- | --- |
| 7800 | 103 | 100 | 58 | 47.5 |  |  |  |  | CC(C)C[C@]1(C)NC(=O)[C@H](Cc2ccc3ccccc3c2)NC(=O)[C@H](Cc2ccc(OCCN)cc2)NC(=O)[C@@H]2CSCC(=O)CSC[C@H](NC(=O)[C@H](CO)NC(=O)Cc3ccc(cc3)CNC(=O)CC[C@@H](C(=O)N[C@@H](CCCNC(=N)N)C(N)=O)NC1=O)C(=O)N[C@@H](Cc1c[nH]c3ccccc13)C(=O)N[C@@H](CCC(N)=O)C(=O)N2 [Ref 52, [4-Aminomethyl-phenylacetyl](1c)*SC(2a)WQC(2a)[Y(2-aminoethoxy)][2-Nal][2-Me-Leu]E(1c)R-[NH2], reference compound] ([X1]SCWQC[AEF][2Nal][αMeL]ER-NH2; linker 3-6 via CH2COCH2; lactam N-10) |  |
| 130 | 100 | 100 | 25 | 20.5 | 5 | 0 |  |  | CC(C)C[C@]1(C)NC(=O)[C@H](Cc2ccc3ccccc3c2)NC(=O)[C@H](Cc2ccc(OCCN)cc2)NC(=O)[C@@H]2CSCC(=O)CSC[C@H](NC(=O)[C@H](CO)NC(=O)c3cccc(c3)CNC(=O)CC[C@@H](C(=O)N[C@@H](CCCNC(=N)N)C(=O)N[C@@H](Cc3cccnc3)C(N)=O)NC1=O)C(=O)N[C@@H](Cc1c[nH]c3ccccc13)C(=O)N[C@@H](CCC(N)=O)C(=O)N2 [Ref 78, [(3-Aminomethyl)benzoyl](1c)*SC(2a)WQC(2a)[Y(2-aminoethoxy)][2-Nal][2-Me-Leu]E(1c)R[3-(3-Pyridyl)-Ala]-[NH2], reference compound] ([3Amb]SCWQC[AEF][2Nal][αMeL]ER[3Pal]-NH2; linker 3-6 via CH2COCH2; lactam N-10) |  |
| 11000 | 97 | 98 | 180 | 150 | 84 | 86 |  |  | CC(C)C[C@]1(C)NC(=O)[C@H](Cc2ccc3ccccc3c2)NC(=O)[C@H](Cc2ccc(OCCN)cc2)NC(=O)[C@@H]2CSCC(=O)CSC[C@H](NC(=O)[C@H](CO)NC(=O)Cc3ccc(cc3)CNC(=O)CC[C@@H](C(=O)N[C@H](CCCNC(=N)N)C(N)=O)NC1=O)C(=O)N[C@@H](Cc1c[nH]c3ccccc13)C(=O)N[C@@H](CCC(N)=O)C(=O)N2 [Ref 80, [4-Aminomethyl-phenylacetyl](1c)*SC(2a)WQC(2a)[Y(2-aminoethoxy)][2-Nal][2-Me-Leu]E(1c)[{d}R]-[NH2], reference compound] ([X1]SCWQC[AEF][2Nal][αMeL]E[dR]-NH2; linker 3-6 via CH2COCH2; lactam N-10) |  |
| 21000 | 95 | 101 | 390 | 318 | 99 | 77 |  |  | CC(C)C[C@]1(C)NC(=O)[C@H](Cc2ccc3ccccc3c2)NC(=O)[C@H](Cc2ccc(OCCN)cc2)NC(=O)[C@@H]2CSCC(=O)CSC[C@H](NC(=O)[C@H](CO)NC(=O)Cc3ccc(cc3)CNC(=O)CC[C@@H](C(=O)N[C@@H](CO)C(N)=O)NC1=O)C(=O)N[C@@H](Cc1c[nH]c3ccccc13)C(=O)N[C@@H](CCC(N)=O)C(=O)N2 [Ref 81, [4-Aminomethyl-phenylacetyl](1c)*SC(2a)WQC(2a)[Y(2-aminoethoxy)][2-Nal][2-Me-Leu]E(1c)S-[NH2], reference compound] |  |
| 11000 | 97 | 103 | 82 | 66.5 | 95 | 77 |  |  | CC(C)C[C@]1(C)NC(=O)[C@H](Cc2ccc3ccccc3c2)NC(=O)[C@H](Cc2ccc(OCCN)cc2)NC(=O)[C@@H]2CSCC(=O)CSC[C@H](NC(=O)[C@H](CO)NC(=O)Cc3ccc(cc3)CNC(=O)CC[C@@H](C(=O)N[C@@H](CCN)C(N)=O)NC1=O)C(=O)N[C@@H](Cc1c[nH]c3ccccc13)C(=O)N[C@@H](CCC(N)=O)C(=O)N2 [Ref 82, [4-Aminomethyl-phenylacetyl](1c)*SC(2a)WQC(2a)[Y(2-aminoethoxy)][2-Nal][2-Me-Leu]E(1c)[Dab]-[NH2], reference compound] ([X1]SCWQC[AEF][2Nal][αMeL]E[Dab]-NH2; linker 3-6 via CH2COCH2; lactam N-10) |  |
| 21000 | 98 | 101 | 730 | 599 |  |  |  |  | CC(C)C[C@]1(C)NC(=O)[C@H](Cc2ccc3ccccc3c2)NC(=O)[C@H](Cc2ccc(OCCN)cc2)NC(=O)[C@@H]2CCNC(=O)CC[C@H](NC(=O)[C@H](CO)NC(=O)Cc3ccc(cc3)CNC(=O)CC[C@@H](C(=O)N[C@@H](CCN)C(N)=O)NC1=O)C(=O)N[C@@H](Cc1c[nH]c3ccccc13)C(=O)N[C@@H](CCC(N)=O)C(=O)N2 [Ref 125, [4-Aminomethyl-phenylacetyl](1c)*SE(2c)WQ[Dab](2c)[Y(2-aminoethoxy)][2-Nal][2-Me-Leu]E(1c)[Dab]-[NH2], reference compound] |  |
|  |  |  |  |  |  |  | 98 | 105 | CC(C)C[C@]1(C)NC(=O)[C@H](Cc2ccc3ccccc3c2)NC(=O)[C@H](Cc2ccc(OCCN)cc2)NC(=O)[C@@H]2CCNC(=O)CC[C@H](NC(=O)[C@H](CO)NC(=O)Cc3ccc(cc3)CNC(=O)CC[C@@H](C(=O)N[C@@H](CCN)C(N)=O)NC1=O)C(=O)N[C@@H](Cc1c[nH]c3ccccc13)C(=O)N[C@@H](CCC(=O)N1CCCC1)C(=O)N2 [Ref 146, [4-Aminomethyl-phenylacetyl](1c)*SE(2c)W[Q(pyrrolidin)][Dab](2c)[Y(2-aminoethoxy)][2-Nal][2-Me-Leu]E(1c)[Dab]-[NH2], reference compound] ([X1]SEWE(Pyrrolidide)[Dab][AEF][2Nal][αMeL]E[Dab]-NH2; lactam 3-6, N-10) |  |

| SMILES | IC50 [1, 3] [pM] | Emax [1, 4] [%] | % displacement (hIL-23R NIuc) (human IL-23R) [%] | IC50 (human IL-23R) [pM] | Ki (human IL-23R) [pM] | remaining at 1 h, 10 µM [2] [%] | remaining at 4 h, 10 µM [2] [%] | hIL-23 (pSTAT3) antagonist % inhibition [1, 4] [%] | % displacement (hIL-23R NIuc) (human IL-23R; Table 3-1, maximal displacement of TAMRA-labelled peptide) [%] | IC50 [1] [pM] |
| --- | --- | --- | --- | --- | --- | --- | --- | --- | --- | --- |
| CC(=O)N[C@H]1CCCCNC(=O)CC[C@@H](C(=O)N[C@@H](CCN)C(=O)N[C@@H](Cc2cccnc2)C(N)=O)NC(=O)[C@](C)(CC(C)C)NC(=O)[C@H](Cc2ccc3ccccc3c2)NC(=O)[C@H](Cc2ccc(OCCN)cc2)NC(=O)[C@@H]2CSCC(=O)CSC[C@H](NC(=O)[C@H]([C@@H](C)O)NC1=O)C(=O)N[C@@H](Cc1c[nH]c3ccccc13)C(=O)N[C@@H](CCC(N)=O)C(=O)N2 [Ref 155, [Ac]-K(1c)TC(2a)WQC(2a)[Y(2-aminoethoxy)][2-Nal][2-Me-Leu]E(1c)[Dab][3-(3-Pyridyl)-Ala]-[NH2], reference compound] (Ac-KTCWQC[AEF][2Nal][αMeL]E[Dab][3Pal]-NH2; lactam 1-10; linker 3-6 via CH2COCH2) |  | 100 | 97 | 9.9 | 8.05 |  |  |  |  | 31 |
